This is an account of results in ChEMBL document CHEMBL3734729, “Synthesis and comparison of the biological activity of monocyclic phosphonate, difluorophosphonate and phosphate analogs of the natural AChE inhibitor cyclophostin” (Bioorg Med Chem, 2015).

Usually IC50 stands for the concentration that gives 50% inhibition. A lower IC50 goes with inhibition by little substance.

For series [1], the target named is T1, Acetylcholinesterase (Homo sapiens, UniProt P22303). Kind of series: Inhibition of human AChE at pH 8.
The nature of series [2]: Drug degradation in MES buffer at pH 6.5 after 30 mins by NMR analysis. The format is physicochemical. The note with it: read-out: Drug degradation.
Series [3] in a line: Drug degradation in MES buffer at pH 6 after 1 hr by NMR analysis. The format is physicochemical. The note with it: read-out: Drug degradation.
A short description of series [4]: Drug degradation in sodium phosphate buffer at pH 8 after 1 hr by NMR analysis. The series is classed as physicochemical. The conditions noted are these: read-out: Drug degradation.
A short description of series [5]: Drug degradation in sodium phosphate buffer at pH 8 after 24 hrs by NMR analysis. The series is classed as physicochemical. The conditions noted are these: read-out: Drug degradation.
Series [6] can be described thus: Drug degradation in sodium phosphate buffer at pH 7 after 24 hrs by NMR analysis. The conditions noted are these: read-out: Drug degradation. The format is physicochemical.
Series [7] is described as follows: Drug degradation in MES buffer at pH 6 after 24 hrs by NMR analysis. The format is physicochemical. The conditions noted are these: read-out: Drug degradation.
Series [8] can be described thus: Drug degradation in MES buffer at pH 6 after 30 mins by NMR analysis. The conditions noted are these: read-out: Drug degradation. The format is physicochemical.
The nature of series [9]: Drug degradation in sodium phosphate buffer at pH 7 after 1 hr by NMR analysis. The format is physicochemical. The note with it: read-out: Drug degradation.
A short description of series [10]: Drug degradation in MES buffer at pH 6.5 after 1 hr by NMR analysis. The series is classed as physicochemical. The conditions noted are these: read-out: Drug degradation.
The target in series [11] is T1, Acetylcholinesterase. Nature of the series: Inhibition of human AChE at pH 6.
A short description of series [12]: Drug degradation in sodium phosphate buffer at pH 7 after 30 mins by NMR analysis. The series is classed as physicochemical. The note with it: read-out: Drug degradation.
The nature of series [13]: Drug degradation in sodium phosphate buffer at pH 8 after 30 mins by NMR analysis. The series is classed as physicochemical. The note with it: read-out: Drug degradation.
For series [14], the target named is T1, Acetylcholinesterase. Nature of the series: Irreversible inhibition of AChE (unknown origin).
Series [15] has as its target T1, Acetylcholinesterase. Kind of series: Inhibition of AChE (unknown origin).
The target of series [16] is Acetylcholinesterase (Musca domestica, UniProt Q7YWJ9). Kind of series: Inhibition of housefly CSMA AChE.
Sequence of Acetylcholinesterase (Musca domestica, UniProt Q7YWJ9) (Q7YWJ9 whole entry): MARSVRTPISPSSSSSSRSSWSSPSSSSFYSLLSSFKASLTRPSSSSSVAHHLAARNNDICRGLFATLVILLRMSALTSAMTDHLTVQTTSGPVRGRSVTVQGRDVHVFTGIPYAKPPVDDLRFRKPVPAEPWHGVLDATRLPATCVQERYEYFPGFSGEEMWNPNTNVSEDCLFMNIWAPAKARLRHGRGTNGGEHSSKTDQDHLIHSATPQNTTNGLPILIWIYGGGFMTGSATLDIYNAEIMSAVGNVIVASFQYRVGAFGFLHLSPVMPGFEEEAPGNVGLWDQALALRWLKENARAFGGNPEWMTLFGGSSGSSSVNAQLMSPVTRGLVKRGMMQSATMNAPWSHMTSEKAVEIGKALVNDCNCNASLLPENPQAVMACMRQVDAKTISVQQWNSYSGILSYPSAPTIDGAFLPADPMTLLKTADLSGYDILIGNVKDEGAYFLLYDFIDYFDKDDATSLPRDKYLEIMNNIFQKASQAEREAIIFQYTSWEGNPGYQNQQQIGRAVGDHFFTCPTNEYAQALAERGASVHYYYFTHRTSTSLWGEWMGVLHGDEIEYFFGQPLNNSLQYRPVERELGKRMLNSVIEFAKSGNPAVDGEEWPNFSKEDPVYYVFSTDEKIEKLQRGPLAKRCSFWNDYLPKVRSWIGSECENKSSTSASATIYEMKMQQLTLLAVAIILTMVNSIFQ

T1 sequence (P22303 whole entry): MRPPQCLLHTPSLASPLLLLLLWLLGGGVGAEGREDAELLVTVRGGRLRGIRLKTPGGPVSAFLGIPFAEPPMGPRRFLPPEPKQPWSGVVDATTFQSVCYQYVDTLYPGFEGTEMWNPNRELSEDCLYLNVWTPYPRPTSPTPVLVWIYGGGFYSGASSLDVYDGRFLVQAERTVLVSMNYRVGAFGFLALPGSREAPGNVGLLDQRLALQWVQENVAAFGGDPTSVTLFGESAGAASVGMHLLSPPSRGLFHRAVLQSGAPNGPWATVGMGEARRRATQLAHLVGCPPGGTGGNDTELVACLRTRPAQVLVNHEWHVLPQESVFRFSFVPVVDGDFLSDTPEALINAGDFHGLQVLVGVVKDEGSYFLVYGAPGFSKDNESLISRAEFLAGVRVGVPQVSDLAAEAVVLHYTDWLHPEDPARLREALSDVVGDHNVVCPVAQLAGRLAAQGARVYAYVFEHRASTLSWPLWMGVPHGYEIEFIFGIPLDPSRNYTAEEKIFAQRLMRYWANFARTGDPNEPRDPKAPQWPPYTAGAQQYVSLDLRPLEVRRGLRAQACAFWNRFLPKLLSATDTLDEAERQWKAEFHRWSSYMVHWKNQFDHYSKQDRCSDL

As for `COP1(=O)OC[C@@H]2COC(=O)C2=C(C)O1` (single isomer, unassigned), half-maximal inhibition on Acetylcholinesterase [1] (IC50) was put at 0.035 µM.
Take `CCOP1(=O)OC(C)=C(C(=O)OC)CCC1(F)F` (configuration not stated): the degraded at 0.5 h in series [2] worked out at 2.8%; in series [8], 0.5%; in [12], 20%; in series [13], 5%. Besides, the degraded at 1 h came to 4.1% in series [3], 50% in [4], 34% in series [9] and 7.2% in series [10]. Moreover, the values for the degraded at 24 h in series [5], in series [6] and in series [7] were 100%, 100% and 65%, respectively. Moreover, the IC50 at Acetylcholinesterase [11] and against Acetylcholinesterase [1] was greater than 100 µM in each case.
On to `COC(=O)C1=C(C)OP(=O)(OC)OCC1` (configuration not stated), for which the degraded at 1 h in [4] was 4%. The degraded at 24 h in series [5] is 57%. Further, the figures for the IC50 on Acetylcholinesterase [11] and at Acetylcholinesterase [1] were 1.04 µM and 1.03 µM, respectively. Besides, the degraded at 0.5 h in series [13] was 0%.
Regarding `COC(=O)C1=C(C)OP(=O)(OC)CCC1` (configuration not stated), the degraded at 1 h in [4] stood at 2%. In addition, in [5], the degraded at 24 h came to 9.6%. Besides, the IC50 amounted to 26 µM at Acetylcholinesterase [11] and 12 µM at Acetylcholinesterase [1]. The degraded at 0.5 h in series [13] turned out to be 2%.
For `COP1(=O)OCCC(C(=O)OC(C)(C)C)=C(C)O1` (configuration not stated), the IC50 against Acetylcholinesterase [11] was found to be 6.1 µM; against Acetylcholinesterase [1], 5.9 µM.
In the case of `COP1(=O)OC[C@H]2COC(=O)C2=C(C)O1` (single isomer, unassigned) [CYCLOPHOSTIN], on Acetylcholinesterase [14], the Ki was determined as 0.14 µM. The figures for the IC50 against Acetylcholinesterase [15], against Acetylcholinesterase [16] and against Acetylcholinesterase [1] were 0.045 µM, 0.00076 µM and 0.04 µM, respectively.
Consider `CCOP1(=O)CCCC(C(=O)OC)=C(C)O1` (configuration not stated), for which the IC50 on Acetylcholinesterase [11] came to 8.9 µM; against Acetylcholinesterase [1], 7.5 µM.
